Measurements as given in publication PMC10891682, “In Vitro Metabolism and In Vivo Pharmacokinetics Profiles of Hydroxy-α-Sanshool” (Toxics, 2024).
Where “and” joins values, the source holds several entries; their conditions need not be identical. Equal values may be shown once.

Assay: Plasma protein binding (equilibrium dialysis)
Type: in vitro ADME
Conditions: human plasma
Description: PPB assays were carried out using the HTD 96-well equilibrium DIALYZERTM (Htdialysis, Gales Ferry, CT, USA). […] Then, the (solution A) was titrated with the (solution B) to pH 7.4 to prepare the dialysis buffer (solution C). The quench solution (solution D) consisted of Alprazolam (100 nM) and Ketoprofen (2 μM) in acetonitrile.
Total 3 μL of testing plasm samples (dissolved in DMSO, 200 μM) was mixed with 597 μL of plasma (the final concentration was 1 μM). The dialysis membranes were pre-soaked with water (60 min), then with 20% ethanol (20 min), and with dialysis buffer (20 min). Both the plasm samples and the dialysis buffer are 100 μL. Then, the dialysis plate was sealed and incubated at 37 °C with 5% CO2 at 100 rpm for 6 h. After 6 hours’ incubation, 50 μL of samples of the dialysis buffer and plasma samples were collected and re-added to a 96-well plate. Then, 50 μL of blank plasma was added to buffer samples, and 50 μL PBS was added to plasma samples. Subsequently, 300 μL quench solution was added to precipitate protein.
Peak Area Ratio buffer chamber means the conc for free fraction;
Peak Area Ratio plasma chamber means the conc for both free and bound fraction;
Peak Area Ratio total sample means the conc for starting sample before incubation.

Bound (%) (1 μM, 6 h dialysis, 37 °C): 98.53% and 98.53 ± 4.76%
Remaining at 6 h (%) (6 h): 110.91 ± 6.04%
recovery at 6 h, 1 μM (pH 7.4, 1 μM, 6 h dialysis, 37 °C): 92.6 ± 7.48%
fraction unbound at 6 h, 1 µM (pH 7.4, 1 μM, 6 h dialysis, 37 °C, read-out: Fu (%), unbound fraction): 0.0147 ± 0.0068
SMILES: CC(=O)N1CCN(c2ccc(OCC3COC(Cn4ccnc4)(c4ccc(Cl)cc4Cl)O3)cc2)CC1 (stereo not shown) [Ketoconazole]
